Key:
[1] = target: T1, human mGluR5 receptor (Homo sapiens, UniProt P41594); experiment: intracellular Ca2+ mobilization assay, potentiation of glutamate EC20 response (FDSS); format: cell-based; conditions: for Emax: HEK293, maximum % effect in concentration-response curve, relative to glutamate ECMax-treated wells, HEK-293 human mGluR5; for EC50: human mGluR5 stably expressed in HEK-293 cells, Fluo-4 AM, increase in glutamate EC20 (~0.2 μM) response
T1 construct: expressed in transfected cells
Description: The compounds provided in the present invention are positive allosteric modulators of mGluR5. These compounds appear to potentiate glutamate responses by binding to an allosteric site other than the glutamate binding site. The response of mGluR5 to a concentration of glutamate is increased when compounds of Formula (I) are present. Compounds of Formula (I) are expected to have their effect substantially at mGluR5 by virtue of their ability to enhance the function of the receptor. The behaviour of positive allosteric modulators tested at mGluR5 using the intracellular Ca^2+ mobilization binding assay method described below and which is suitable for the identification of such compounds.
In brief, the human mGluR5 receptor was stably expressed in HEK-293 cells and grown at a density of 40,000 cells/well in PDL-coated 384-well plates. Cells were preloaded with the calcium-sensing dye Fluo-4 AM and various concentrations of test compound were added in the absence of exogenous glutamate to test for direct agonist activity. Shortly (2.5 min) thereafter, an EC20 equivalent of glutamate (˜0.2 μM) was added. The fluorescence signal was monitored using a Hamamatsu Functional Drug Screening System (FDSS) fluorescence plate reader following the addition of compound alone (direct agonist response) and then the further addition of an EC20 of glutamate (positive allosteric modulation response). The pEC50 was defined as the negative log of the test compound concentration which produced an increase in the glutamate EC20-mediated response that was 50% of maximum. Individual amplitudes were expressed as % effect by multiplying each amplitude by 100 and then dividing the product by the mean of the amplitudes derived from the glutamate ECMax-treated wells. Emax values reported in this application are defined as the maximum % effect obtained in a concentration-response curve.

T1 sequence (P41594 21-1212): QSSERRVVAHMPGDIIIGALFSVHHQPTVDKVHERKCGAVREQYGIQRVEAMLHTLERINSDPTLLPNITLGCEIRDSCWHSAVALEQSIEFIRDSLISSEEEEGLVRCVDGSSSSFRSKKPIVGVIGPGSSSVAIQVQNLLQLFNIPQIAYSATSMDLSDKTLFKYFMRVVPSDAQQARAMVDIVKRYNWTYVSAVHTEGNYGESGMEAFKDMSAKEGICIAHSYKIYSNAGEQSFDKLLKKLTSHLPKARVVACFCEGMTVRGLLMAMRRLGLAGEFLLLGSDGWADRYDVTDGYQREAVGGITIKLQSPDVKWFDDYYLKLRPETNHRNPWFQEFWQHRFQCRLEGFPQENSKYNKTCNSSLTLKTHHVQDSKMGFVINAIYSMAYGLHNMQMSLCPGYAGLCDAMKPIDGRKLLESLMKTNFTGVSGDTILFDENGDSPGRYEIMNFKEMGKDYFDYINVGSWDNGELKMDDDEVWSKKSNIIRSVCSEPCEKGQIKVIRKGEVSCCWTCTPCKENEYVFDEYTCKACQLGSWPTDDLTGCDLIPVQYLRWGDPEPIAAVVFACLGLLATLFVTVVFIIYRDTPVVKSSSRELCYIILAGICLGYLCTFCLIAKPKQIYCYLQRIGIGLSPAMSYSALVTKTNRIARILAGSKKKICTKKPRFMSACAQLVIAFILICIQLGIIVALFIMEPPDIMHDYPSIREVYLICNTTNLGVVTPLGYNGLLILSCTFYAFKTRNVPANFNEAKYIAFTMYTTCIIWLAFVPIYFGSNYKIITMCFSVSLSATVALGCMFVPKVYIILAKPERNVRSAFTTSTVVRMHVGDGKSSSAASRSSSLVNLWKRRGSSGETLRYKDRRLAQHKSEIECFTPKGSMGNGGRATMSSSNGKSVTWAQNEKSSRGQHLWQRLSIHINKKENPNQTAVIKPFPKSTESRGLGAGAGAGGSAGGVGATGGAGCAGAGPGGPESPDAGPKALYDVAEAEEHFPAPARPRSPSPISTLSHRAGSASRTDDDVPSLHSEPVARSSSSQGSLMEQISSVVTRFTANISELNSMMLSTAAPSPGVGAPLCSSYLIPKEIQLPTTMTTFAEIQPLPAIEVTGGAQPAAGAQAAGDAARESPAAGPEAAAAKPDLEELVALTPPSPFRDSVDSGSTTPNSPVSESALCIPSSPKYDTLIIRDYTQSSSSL

SMILES | Emax [1] | EC50 [1] | melting point
O=C1CCCc2nc(C#Cc3ccccc3)sc21 [Compound 1, 5,6-dihydro-2-(phenylethynyl)-7(4H)-benzothiazolone] | 100% | 51.3 nM | 117.1 to 119.9 °C
O=C1CCCc2nc(C#Cc3cncc(F)c3)sc21 [Compound 2, 2-[(5-fluoro-3-pyridinyl)ethynyl]-5,6-dihydro-7(4H)-benzothiazolone] | 83% | 4270 nM | 139.2 to 141.9 °C
O=C1NCCc2nc(C#Cc3ccccc3)sc21 [Compound 3, 6,7-dihydro-2-(phenylethynyl)-thiazolo[5,4-c]pyridin-4(5H)-one] | 78% | 219 nM | 232.1 to 235.1 °C
CN1CCc2nc(C#Cc3ccccc3)sc2C1=O [Compound 4, 6,7-dihydro-5-methyl-2-(phenylethynyl)-thiazolo[5,4-c]pyridin-4(5H)-one] | 79% | 69.2 nM | 146.1 to 147.2 °C
O=C1CCCc2nc(CCc3ccccc3)sc21 [Compound 6, 5,6-dihydro-2-(2-phenylethyl)-7(4H)-benzothiazolone] | 51% | 18600 nM | 
O=C1NCCCc2nc(-c3ccc(N4CCCCC4)nc3)sc21 [Compound 8] | 11% | 5010 nM | 260.3 to 264 °C
CN1CCOc2cc(-c3nc4c(s3)C(=O)CCC4)ccc21 [Compound 9, 2-(4-methyl-3,4-dihydro-2H-1,4-benzoxazin-7-yl)-5,6-dihydro-1,3-benzothiazol-7(4H)-one] | 77% | 6310 nM | 218.1 to 220.8 °C
O=C1CCCc2nc(C#Cc3cccnc3)sc21 [Compound 10, 5,6-dihydro-2-(3-pyridinylethynyl)-7(4H)-benzothiazolone] | 92% | 1510 nM | 109.5 to 112 °C
COCCN1CCc2nc(C#Cc3ccccc3)sc2C1=O [Compound 11, 6,7-dihydro-5-(2-methoxyethyl)-2-(phenylethynyl)-thiazolo[5,4-c]pyridin-4 (5H)-one] | 64% | 275 nM | 144.5 to 148.2 °C
O=C1c2sc(C#Cc3ccccc3)nc2CCN1Cc1ccccc1 [Compound 12, 6,7-dihydro-2-(phenylethynyl)-5-(phenylmethyl)-thiazolo[5,4-c]pyridin-4(5H)-one] | 90% | 468 nM | 141.5 to 152.5 °C
O=C1c2sc(OCc3ccncc3)nc2CCN1c1ccc(F)cc1 [Compound 21] |  |  | 169.1 to 170.9 °C
O=C1c2sc(NCc3ccccc3)nc2CCN1c1ccc(F)cc1 [Compound 22] |  |  | 221.3 °C
O=C1c2sc(OCc3cccnc3)nc2CCN1c1ccc(F)cc1F [Compound 23] |  |  | 106 to 110 °C
O=C1c2sc(OCc3ccccn3)nc2CCN1c1ccc(F)cc1F [Compound 24] |  |  | 98.1 to 100.1 °C
